Test [1] has as its target T1, porcine kidney microsomal aminopeptidase M (Sus scrofa, UniProt P15145).
T1 construct: purchased Sigma-Aldrich (St. Louis, MO, USA); host or cells: porcine kidney microsomes
T1 sequence (P15145 1-963): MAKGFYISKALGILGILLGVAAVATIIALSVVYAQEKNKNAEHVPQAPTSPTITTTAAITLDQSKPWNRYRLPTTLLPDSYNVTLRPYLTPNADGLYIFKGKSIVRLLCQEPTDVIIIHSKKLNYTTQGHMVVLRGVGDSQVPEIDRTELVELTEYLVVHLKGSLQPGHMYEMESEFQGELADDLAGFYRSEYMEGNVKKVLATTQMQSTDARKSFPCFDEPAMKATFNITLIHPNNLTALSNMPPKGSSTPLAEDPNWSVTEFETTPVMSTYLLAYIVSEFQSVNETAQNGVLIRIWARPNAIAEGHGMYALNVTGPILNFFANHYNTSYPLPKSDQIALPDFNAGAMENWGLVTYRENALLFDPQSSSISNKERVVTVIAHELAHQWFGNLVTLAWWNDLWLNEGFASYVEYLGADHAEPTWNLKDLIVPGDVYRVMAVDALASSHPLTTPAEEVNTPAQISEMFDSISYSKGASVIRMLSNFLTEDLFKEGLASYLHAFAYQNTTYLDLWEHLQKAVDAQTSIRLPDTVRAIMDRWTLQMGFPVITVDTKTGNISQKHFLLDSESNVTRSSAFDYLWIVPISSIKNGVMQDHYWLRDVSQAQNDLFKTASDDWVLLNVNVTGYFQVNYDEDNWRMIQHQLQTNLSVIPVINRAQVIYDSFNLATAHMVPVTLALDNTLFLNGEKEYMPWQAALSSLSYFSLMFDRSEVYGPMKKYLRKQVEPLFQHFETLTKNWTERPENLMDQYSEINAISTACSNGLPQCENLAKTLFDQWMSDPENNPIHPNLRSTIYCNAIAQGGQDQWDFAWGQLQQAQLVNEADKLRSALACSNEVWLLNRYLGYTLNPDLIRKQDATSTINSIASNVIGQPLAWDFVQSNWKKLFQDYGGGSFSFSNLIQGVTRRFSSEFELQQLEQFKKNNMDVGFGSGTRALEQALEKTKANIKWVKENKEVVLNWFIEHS
In words: Aminopeptidase M inhibitory assay. Type of test: biochemical. As for the experimental part:
Aminopeptidase M inhibitory activity was determined according to the procedure described by Ishida et al.. A reaction mixture composed of 20 μL of L-leucine-p-nitroanilide (2 mM in 0.1 M Tris-HCl buffer at pH 7.0), 50 μL of 0.1 M Tris-HCl buffer (pH 7.0) and 20 μL of test solution was added to each well of a 96-well microtiter plate. The plate was incubated at 37 °C for 5 min; thereafter, 10 μL of porcine kidney microsomal aminopeptidase M [EC Number 232-942-5, Sigma-Aldrich (St. Louis, MO, USA), […] in 3.5 M (NH4)2SO4] was added to each well, and the absorbance at 405 nm was measured for 30 min. The microginin samples were dissolved in DMSO at a concentration of 1 mg/mL, and the IC50 values were determined by analysis of a series of dilutions (from 45.5 μM to 0.00069 μM). A sigmoidal curve of the enzyme inhibition versus the concentration of the inhibitor was observed that was fit to a 4-parameter logistic model.

In another test the test system is APN. Particulars: Table S1, cited from earlier work.
The test system of another test is ACE. The settings on record: Table S1; ref 3 (Neumann et al., FEMS Microbiol. Lett. 1997); cited from earlier work.
The next test has as its system mAPM. The arrangement: method as in earlier work. The settings on record: Table S1; ref 3 (Neumann et al., FEMS Microbiol. Lett. 1997); cited from earlier work.
The next test concerns cAPM. The arrangement: method as in earlier work. Particulars: Table S1; ref 3 (Neumann et al., FEMS Microbiol. Lett. 1997); cited from earlier work.
Setting [2] is: Activity: APM, Table S1, source 14 = this manuscript.
Where [3] appears, read: IC50 in μM ± SD, Table 4, substrate L-leucine-p-nitroanilide, Tris-HCl pH 7.0, 37 °C.
The mark [4] stands for this setting: Table 4, substrate L-leucine-p-nitroanilide, Tris-HCl pH 7.0, 37 °C, read-out: IC50 in μM ± SD.
The mark [5] stands for this setting: Table S1, source 14 = this manuscript, heading: Activity: APM, read-out: Activity: APM.
The mark [6] stands for this setting: read-out: Activity: APM, Table S1, source 14 = this manuscript.
[7] abbreviates: read-out: IC50 in μM ± SD, Table 4, substrate L-leucine-p-nitroanilide, Tris-HCl pH 7.0, 37 °C.

Read-outs that look alike come from different tables or passages of the source. Square brackets hold non-standard residues; d marks the D form. Peptide text beside a SMILES is read from it. * marks the point of attachment. X13 = CN[C@H](CCCCCCC(Cl)Cl)[C@@H](O)C(=O)*; X4 = CN[C@H](CCCCCCCCl)[C@@H](O)C(=O)*; NMeY = CN[C@@H](Cc1ccc(O)cc1)C(=O)O; X17 = CCCCC[C@H](N)[C@H](O)C(=O)*; NMeI = CC[CH](C)[CH](NC)C(=O)O; NMeL = CN[CH](CC(C)C)C(=O)O; X11 = CCCCCCCC(NC)C(O)C(=O)*; X5 = NC(CCCCCCCCl)C(O)C(=O)*; X16 = CCCCCC(NC)C(O)C(=O)*; X8 = CCCCCCCC(N)C(O)C(=O)*

On to `CN[C@H](CCCCCCCCl)[C@@H](O)C(=O)N[C@@H](Cc1ccc(O)cc1)C(=O)N(C)[C@@H](CC(C)C)C(=O)N1CCC[C@H]1C(=O)N[C@@H](Cc1ccc(O)cc1)C(=O)OC` [Microginin KR815] (X4-Y[NMeL]PY-OMe), for which the figures for the IC50 in test [1] (setting [2]) and in test [1] (setting [3]) were 0.072 µM and 72 ± 0.1 µM, respectively.

On to `CCCCCCCC(N)C(O)C(=O)NC(C(=O)N1CCCC1C(=O)NC(Cc1ccc(O)cc1)C(=O)NC(Cc1ccc(O)cc1)C(=O)O)C(C)O` (centres unmarked) [Microginin FR3] (X8-TPYY-OH; configuration not given here), for which the IC50 in test [1] (setting [2]) is 0.0062 µM; in test [1] (setting [3]), 6.2 ± 0.03 µM. Take `CN[C@H](CCCCCCCCl)[C@@H](O)C(=O)N[C@@H](Cc1ccc(O)cc1)C(=O)N(C)[C@@H](CC(C)C)C(=O)N1CCC[C@H]1C(=O)O` [Microginin KR638]: the IC50 in test [1] (setting [4]) was 3.8 ± 0.3 µM; in test [1] (setting [5]), 3.8 µM.

With `CCCCCC(NC)C(O)C(=O)N[C@H](C(=O)N(C)[C@H](C(=O)N(C)[C@@H](Cc1ccc(O)cc1)C(=O)N[C@@H](Cc1ccc(O)cc1)C(=O)O)[C@@H](C)CC)C(C)C` (some centres unmarked) [Microginin SD755] (X16-V[NMeI][NMeY]Y-OH), the IC50 in the test on APN (ref 7 (Resef, Carmeli, Tetrahedron 2001)) was 18500 nM. Consider `CCCCCCCC(NC)C(O)C(=O)NC(C(=O)N1CCCC1C(=O)NC(Cc1ccc(O)cc1)C(=O)NC(Cc1ccc(O)cc1)C(=O)O)C(C)O` (centres unmarked) [Microginin FR4] (X11-TPYY-OH; configuration not given here), for which the IC50 turned out to be 0.0018 µM in test [1] (setting [6]) and 1.8 ± 0.04 µM in test [1] (setting [7]). In the same order, the values of `CN[C@H](CCCCCCCCl)[C@@H](O)C(=O)N[C@@H](Cc1ccc(O)cc1)C(=O)N(C)[C@@H](CC(C)C)C(=O)N1CCC[C@H]1C(=O)N[C@@H](Cc1ccc(O)cc1)C(=O)O` [Microginin KR801] (X4-Y[NMeL]PY-OH) are 0.0001 µM and 0.1 ± 0.2 µM.

Regarding `CC(C)[C@@H](C(=O)N[C@@H](Cc1ccc(O)cc1)C(=O)O)N(C)C(=O)[C@H](C)NC(=O)[C@@H](O)[C@@H](N)CCCCCCCCl` [Microginin AL584], in the test with APN (ref 10 (Gesner-Apter, Carmeli, Tetrahedron 2008)), the “Activity: APN (ni)” value is reported as “ni”. As for `CN[C@H](CCCCCCC(Cl)Cl)[C@@H](O)C(=O)N[C@@H](Cc1ccc(O)cc1)C(=O)N(C)[C@@H](CC(C)C)C(=O)N1CCC[C@H]1C(=O)N[C@@H](Cc1ccc(O)cc1)C(=O)O` [Microginin KR835] (X13-Y[NMeL]PY-OH), the IC50 in test [1] (setting [6]) came out at 0.0004 µM; in test [1] (setting [7]), 0.4 ± 0.2 µM.

Turning to `CCCCC[C@H](N)[C@H](O)C(=O)N[C@H](C(=O)N(C)[C@H](C(=O)N(C)[C@@H](Cc1ccc(O)cc1)C(=O)N[C@@H](Cc1ccc(O)cc1)C(=O)O)[C@@H](C)CC)C(C)C` [Nostoginin BN741] (X17-V[NMeI][NMeY]Y-OH), the IC50 in the test on APN (ref 8 (Ploutno, Carmeli, Tetrahedron 2002)) is 1300 nM. Consider Microginin FR1, for which the IC50 in the test on ACE was 16000 nM; in the test with mAPM it was 6 nM; with cAPM, 1300 nM. Turning to `CCCCCCC[C@@H](NC)[C@@H](O)C(=O)N[C@@H](Cc1ccc(O)cc1)C(=O)N(C)[C@@H](CC(C)C)C(=O)N1CCC[C@H]1C(=O)O` [Microginin KR604], the IC50 in test [1] (setting [4]) is 7.5 ± 0.1 µM; in test [1] (setting [5]), 7.5 µM.

As for `CCC(C)C(C(=O)N1CCCC1C(=O)NC(Cc1ccc(O)cc1)C(=O)O)N(C)C(=O)C(Cc1ccc(O)cc1)NC(=O)C(O)C(N)CCCCCCCCl` (centres unmarked) [Microginin HG787] (X5-Y[NMeI]PY-OH; configuration not given here), the IC50 in the test with APN (ref 11 (Lifshits et al., Tetrahedron 2011)) was 7700 nM. In the case of `CCCCCCCC(NC)C(O)C(=O)NC(Cc1ccc(O)cc1)C(=O)N(C)C(CC(C)C)C(=O)N1CCCC1C(=O)NC(Cc1ccc(O)cc1)C(=O)O` (centres unmarked) [Microginin KR767] (X11-Y[NMeL]PY-OH; configuration not given here), the figures for the IC50 in test [1] (setting [6]) and in test [1] (setting [7]) were 0.0005 µM and 0.5 ± 0.2 µM, respectively.
